IC50, efflux ratio and Papp A→B data for 19 compounds are collected here from US20240254119A1 (THIRD HARMONIC BIO, INC., priority 2022, published 2024).

One series addresses T1, CSF-1R (Homo sapiens, UniProt P07333).
T1 construct: purchased Invitrogen PV3249 (lot 662393N)
Briefly: HTRF biochemical assay, CSF-1R. Conditions: Table 4. An outline of the steps:
(§1)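 Kinase phosphorylation of a FAM-labelled peptide substrate, with ATP and Mn^2+ cofactors, run for 3 h at 25 °C, with optional enzyme–compound pre-incubation. Reactions were quenched with EDTA, and phosphopeptide was detected by anti-phosphotyrosine antibody HTRF.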

A further series concerns the target T2, PDGFRα (Homo sapiens, UniProt P16234).
T2 construct: purchased Millipore 14-467 (lot 26321_ACTI)
As to the kind of experiment: HTRF biochemical assay, PDGFRα. Conditions: Table 4, read-out: PDFGRα Biochemical IC50 avg. A digest of the protocol: as §1
(Time-resolved FRET reads energy transfer from a long-lived donor to a nearby acceptor.)

The target in a further series is T3, MDR1 (Homo sapiens, UniProt P08183).
T3 construct: host or cells: MDCKII (canine kidney) cells
As to the kind of experiment: Permeability in MDR1-MDCKII cells. It counts as in vitro ADME. Conditions: dog, MDCK-MDR1, pH 7.4. The protocol:
Exemplary compounds were tested for cell permeability in Caco-2, MDCKII-MDR1 and MDCKII-BCRP cell lines with efflux transporter engagement inferred from the efflux ratios determined. Procedures and results are described below. […] This feature of certain compounds is in part due to efflux transporter engagement. See, for instance, exemplary such compounds included in data tables below.
MDR1-MDCKII cells (obtained from Piet Borst at the Netherlands Cancer Institute) were seeded onto […] membranes (PET) in 96-well insert systems at 2.5×10^5 cells/mL until to 4-7 days for confluent cell monolayer formation.
Test compounds were diluted with the transport buffer (HBSS with 10 mM Hepes, pH7.4) from DMSO stock solution to a concentration of 2.00 μM (DMSO<1%) and applied to the apical or basolateral side of the cell monolayer. Permeation of the test compounds from A to B direction or B to A direction was determined in duplicate. Digoxin was tested at 10.0 μM from A to B direction or B to A direction as well, while nadolol and metoprolol were tested at […] in A to B direction in duplicate. The plate was incubated for 2.5 hours in CO2 incubator at 37±1° C., with 5% CO2 at saturated humidity without shaking. In addition, the efflux ratio of each compound was also determined. Test and reference compounds were quantified by LC-MS/MS analysis based on the peak area ratio of analyte/IS.
After transport assay, Lucifer yellow rejection assay are applied to determine the cell monolayer integrity. Buffers are removed from both apical and basolateral chambers, followed by the addition of 75 μL of 100 μM lucifer yellow in transport buffer and 250 μL transport buffer in apical and basolateral chambers, respectively. The plate is incubated for 30 minutes at 37° C. with 5% CO2 and saturated humidity without shaking. After 30 minutes incubation, 20 μL of lucifer yellow samples are taken from the apical sides, followed by the addition of 60 μL of Transport Buffer. And then 80 μL of lucifer yellow samples are taken from the basolateral sides. The relative fluorescence unit (RFU) of lucifer yellow is measured at 425/528 nm (excitation/emission) with an Envision plate reader.
The apparent permeability coefficient Papp (cm/s) was calculated using the equation: […]
Where dCr/dt is the cumulative concentration of compound in the receiver chamber as a function of time (μM/s); Vr is the solution volume in the receiver chamber (0.075 mL on the apical side, 0.25 mL on the basolateral side); A is the surface area for the transport, i.e. 0.0804 cm^2 for the area of the monolayer; C0 is the initial concentration in the donor chamber (μM). The efflux ratio was calculated using the equation: […]
Where Vd is the volume in the donor chambers (0.075 mL on the apical side, 0.25 mL on the basolateral side); Cd and Cr are the final concentrations of transport compound in donor and receiver chambers, respectively.

Series [1] has as its target T4, KIT-NanoLuc fusion in HEK293 cells (Homo sapiens, UniProt P10721).
T4 construct: expressed in transfected cells; host or cells: HEK293, transient transfection
Briefly: NanoBRET cellular target engagement assay, KIT. It counts as cell-based. The protocol: (§2) Exemplary compounds were tested for their ability to inhibit target engagement of KIT or CSF-1R kinases through competitive displacement of a Nano-Luc luciferase kinase fusion in HEK293 cells.
(§3) The NanoBRET target engagement assay employs an energy transfer technique designed to measure molecular proximity in living cells. The assay measures the apparent affinity of test compounds by competitive displacement of the NanoBRET tracer, reversibly bound to a NanoLuc luciferase-kinase fusion construct in cells. The intracellular binding affinity and selectivity are physiologically relevant and fundamental to the pharmacological mechanism of the compounds. While biochemical and biophysical assays identify the kinase inhibitors in vitro, the NanoBRET target engagement assay serves to determine the direct interaction of the compounds binding to target kinases in cells.
(§4) HEK293 cells transiently expressing NanoLuc-DDR1 fusion vector were seeded into 384-well plates and treated with the Tracer K-4 and compound for 1 hour. The BRET signal was measured on an EnVision 2104 multilabel microplate reader. NanoBRET Target Engagement Assay in HEK293 cells transiently transfected with KIT and CSF1R-NanoLuc Fusion Vector. HEK293 cells were transfected with […] KIT or CSF1R-NanoLuc Fusion Vector and […] carrier DNA. The transfected cells were treated with test compounds (starting at 10 μM, 10-dose with 3-fold dilution) and reference compound (desatinib) (starting at 1 μM, 10-dose with 3-fold dilution). Percent inhibition due to compound activity was calculated to determine IC50.

Series [2] has as its target T5, CSF1R-NanoLuc fusion in HEK293 cells (Homo sapiens, UniProt P07333).
T5 construct: expressed in transfected cells; host or cells: HEK293, transient transfection
Briefly: NanoBRET cellular target engagement assay, CSF-1R. Format: cell-based. The protocol:
as §2, §3, §4

One may read the IC50 as the concentration that inhibits the measured activity by half. A word on the efflux ratio: it is a quotient of directional permeabilities that is used to spot active efflux. In general, Papp A→B refers to how fast a substance crosses the layer from the apical side. A high value points to ready permeation.

T4 sequence (P10721 26-976): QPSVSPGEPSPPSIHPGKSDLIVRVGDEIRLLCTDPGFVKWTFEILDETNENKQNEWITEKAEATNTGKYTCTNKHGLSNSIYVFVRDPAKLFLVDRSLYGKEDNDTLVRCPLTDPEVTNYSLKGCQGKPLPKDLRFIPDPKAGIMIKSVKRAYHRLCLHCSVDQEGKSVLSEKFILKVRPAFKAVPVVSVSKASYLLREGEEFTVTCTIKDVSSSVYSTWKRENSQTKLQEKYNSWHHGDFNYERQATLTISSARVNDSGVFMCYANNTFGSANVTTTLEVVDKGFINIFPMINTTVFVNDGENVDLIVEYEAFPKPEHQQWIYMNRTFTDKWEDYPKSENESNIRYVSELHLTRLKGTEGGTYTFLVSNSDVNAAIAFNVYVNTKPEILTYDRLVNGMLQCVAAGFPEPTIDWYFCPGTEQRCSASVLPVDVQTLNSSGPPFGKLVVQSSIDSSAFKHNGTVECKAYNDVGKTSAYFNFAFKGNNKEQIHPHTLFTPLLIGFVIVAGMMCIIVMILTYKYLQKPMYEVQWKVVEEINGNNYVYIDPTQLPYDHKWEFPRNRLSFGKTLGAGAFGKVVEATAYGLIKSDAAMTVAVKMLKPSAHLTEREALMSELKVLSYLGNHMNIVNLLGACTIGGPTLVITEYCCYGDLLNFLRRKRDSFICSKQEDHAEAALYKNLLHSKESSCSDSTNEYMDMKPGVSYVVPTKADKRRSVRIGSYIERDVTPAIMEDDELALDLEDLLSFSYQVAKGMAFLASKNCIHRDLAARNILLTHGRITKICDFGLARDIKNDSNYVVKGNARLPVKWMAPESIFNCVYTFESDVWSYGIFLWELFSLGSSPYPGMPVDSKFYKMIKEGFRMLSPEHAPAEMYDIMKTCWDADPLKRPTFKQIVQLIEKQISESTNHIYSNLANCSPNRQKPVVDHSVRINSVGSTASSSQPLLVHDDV
T5 sequence (P07333 20-972): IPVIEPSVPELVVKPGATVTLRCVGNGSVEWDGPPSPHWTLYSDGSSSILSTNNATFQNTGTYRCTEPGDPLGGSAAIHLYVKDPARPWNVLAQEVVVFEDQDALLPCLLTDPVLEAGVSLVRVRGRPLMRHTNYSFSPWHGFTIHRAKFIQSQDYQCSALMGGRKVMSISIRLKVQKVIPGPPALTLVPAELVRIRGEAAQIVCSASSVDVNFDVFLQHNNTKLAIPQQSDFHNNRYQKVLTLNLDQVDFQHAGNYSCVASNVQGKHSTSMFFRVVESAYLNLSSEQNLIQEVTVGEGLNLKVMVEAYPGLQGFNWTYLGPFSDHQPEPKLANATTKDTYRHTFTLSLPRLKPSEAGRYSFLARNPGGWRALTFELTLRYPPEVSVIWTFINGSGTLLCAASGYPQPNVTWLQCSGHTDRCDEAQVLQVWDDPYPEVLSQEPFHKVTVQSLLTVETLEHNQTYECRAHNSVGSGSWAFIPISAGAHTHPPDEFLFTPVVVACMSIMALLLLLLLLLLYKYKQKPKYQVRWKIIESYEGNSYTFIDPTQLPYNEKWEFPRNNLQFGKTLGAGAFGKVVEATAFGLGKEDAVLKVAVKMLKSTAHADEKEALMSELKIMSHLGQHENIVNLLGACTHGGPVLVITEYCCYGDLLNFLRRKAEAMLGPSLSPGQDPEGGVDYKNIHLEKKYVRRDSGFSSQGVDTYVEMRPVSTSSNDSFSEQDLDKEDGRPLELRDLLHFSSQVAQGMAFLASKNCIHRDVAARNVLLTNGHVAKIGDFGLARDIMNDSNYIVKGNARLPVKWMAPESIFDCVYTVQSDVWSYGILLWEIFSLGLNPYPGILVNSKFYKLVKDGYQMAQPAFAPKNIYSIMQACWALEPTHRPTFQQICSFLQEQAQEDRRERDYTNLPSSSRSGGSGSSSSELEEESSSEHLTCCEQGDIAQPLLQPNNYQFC
T1 sequence (P07333 20-972): as above
T2 sequence (P16234 24-1089): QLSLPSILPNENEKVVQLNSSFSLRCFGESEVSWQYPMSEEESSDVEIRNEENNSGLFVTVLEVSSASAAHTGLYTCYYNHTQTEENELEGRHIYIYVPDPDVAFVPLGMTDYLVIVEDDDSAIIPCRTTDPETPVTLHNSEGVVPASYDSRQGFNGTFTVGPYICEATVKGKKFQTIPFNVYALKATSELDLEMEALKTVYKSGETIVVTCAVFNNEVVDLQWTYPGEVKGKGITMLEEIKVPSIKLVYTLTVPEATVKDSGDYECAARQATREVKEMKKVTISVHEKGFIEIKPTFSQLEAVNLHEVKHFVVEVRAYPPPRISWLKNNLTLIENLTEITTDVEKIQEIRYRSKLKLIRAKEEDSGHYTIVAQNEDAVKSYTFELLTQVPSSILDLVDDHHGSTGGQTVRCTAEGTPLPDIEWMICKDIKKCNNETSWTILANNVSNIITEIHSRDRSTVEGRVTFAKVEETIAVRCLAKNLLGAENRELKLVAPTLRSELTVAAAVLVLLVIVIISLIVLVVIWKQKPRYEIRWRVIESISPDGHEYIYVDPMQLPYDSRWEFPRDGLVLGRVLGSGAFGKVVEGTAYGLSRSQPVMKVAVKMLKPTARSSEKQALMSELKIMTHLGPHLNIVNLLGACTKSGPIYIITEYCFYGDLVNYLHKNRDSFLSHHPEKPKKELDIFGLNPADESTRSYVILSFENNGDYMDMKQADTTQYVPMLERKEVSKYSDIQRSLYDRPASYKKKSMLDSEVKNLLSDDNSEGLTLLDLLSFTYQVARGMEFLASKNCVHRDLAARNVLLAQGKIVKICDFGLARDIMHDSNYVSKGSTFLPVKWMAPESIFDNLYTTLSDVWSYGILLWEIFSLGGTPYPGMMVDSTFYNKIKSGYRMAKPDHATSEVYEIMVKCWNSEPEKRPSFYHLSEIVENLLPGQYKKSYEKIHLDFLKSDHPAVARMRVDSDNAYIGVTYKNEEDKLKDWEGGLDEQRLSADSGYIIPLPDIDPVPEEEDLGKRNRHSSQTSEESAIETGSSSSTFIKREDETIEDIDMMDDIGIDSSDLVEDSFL
T3 sequence (P08183 whole entry): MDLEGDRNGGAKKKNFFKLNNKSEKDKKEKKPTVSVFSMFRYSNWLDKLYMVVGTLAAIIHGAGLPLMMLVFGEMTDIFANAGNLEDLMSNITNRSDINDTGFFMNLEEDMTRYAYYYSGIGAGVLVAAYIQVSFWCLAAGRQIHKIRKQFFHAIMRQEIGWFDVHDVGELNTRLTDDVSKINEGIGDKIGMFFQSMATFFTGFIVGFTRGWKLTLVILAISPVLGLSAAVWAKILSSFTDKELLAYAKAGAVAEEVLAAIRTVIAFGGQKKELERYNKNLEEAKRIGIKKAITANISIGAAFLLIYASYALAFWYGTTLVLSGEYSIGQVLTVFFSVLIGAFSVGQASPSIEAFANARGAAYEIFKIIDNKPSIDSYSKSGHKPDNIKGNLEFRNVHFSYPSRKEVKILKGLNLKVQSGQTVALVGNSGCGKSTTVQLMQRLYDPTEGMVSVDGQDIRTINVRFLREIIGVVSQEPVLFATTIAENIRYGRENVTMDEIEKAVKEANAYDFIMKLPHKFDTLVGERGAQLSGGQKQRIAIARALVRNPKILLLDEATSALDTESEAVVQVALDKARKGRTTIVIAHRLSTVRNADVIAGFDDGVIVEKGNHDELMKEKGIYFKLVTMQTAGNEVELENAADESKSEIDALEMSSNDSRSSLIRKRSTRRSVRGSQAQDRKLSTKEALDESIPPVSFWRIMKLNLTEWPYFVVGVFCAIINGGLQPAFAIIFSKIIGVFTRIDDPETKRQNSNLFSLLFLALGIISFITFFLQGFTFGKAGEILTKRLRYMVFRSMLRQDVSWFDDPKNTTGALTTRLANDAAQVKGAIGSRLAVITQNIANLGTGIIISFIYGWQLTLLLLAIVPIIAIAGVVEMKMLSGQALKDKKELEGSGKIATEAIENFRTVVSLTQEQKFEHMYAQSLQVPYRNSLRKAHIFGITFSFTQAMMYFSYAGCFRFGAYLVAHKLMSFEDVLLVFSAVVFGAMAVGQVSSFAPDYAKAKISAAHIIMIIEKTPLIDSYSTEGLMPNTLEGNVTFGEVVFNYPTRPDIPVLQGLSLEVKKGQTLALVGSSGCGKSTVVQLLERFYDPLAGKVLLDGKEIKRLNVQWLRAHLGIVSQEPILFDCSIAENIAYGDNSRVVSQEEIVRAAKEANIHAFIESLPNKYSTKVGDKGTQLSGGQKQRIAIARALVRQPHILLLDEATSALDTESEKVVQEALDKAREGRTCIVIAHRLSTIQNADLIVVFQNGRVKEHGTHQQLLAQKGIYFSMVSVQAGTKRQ

For the compound `COC(=O)N1CC(c2nc(-c3ccc(Cl)c(NC(=O)c4cnc5ccccn45)c3)no2)C1` [Compound I-339], the half-maximal inhibitory concentration (IC50) on CSF-1R and on PDGFRα was 500 to 5000 nM throughout.

As for `Cc1ccc(-c2noc([C@H]3C[C@@H]3F)n2)cc1NC(=O)c1cnn2ccccc12` [Compound I-109], the IC50 on CSF-1R is 50 to 500 nM; on PDGFRα it was 500 to 5000 nM.

For `COc1ccn2c(C(=O)Nc3cc(-c4noc(C5CC(F)(F)C5)n4)ccc3C)cnc2c1` [Compound I-96], the IC50 at CSF-1R is at most 50 nM; at PDGFRα, 50 to 500 nM.

As to `Cc1ccc(-c2noc(C3CC(OCCF)C3)n2)cc1NC(=O)c1cnc2ccccn12` (stereo not shown) [Compound I-369], the IC50 at CSF-1R and at PDGFRα was 5000 to 30000 nM throughout.

Regarding `Cc1ccc(-c2noc(CC(C)(C)O)n2)cc1NC(=O)c1cnc2ccccn12` [Compound I-336], the IC50 on CSF-1R and at PDGFRα was 50 to 500 nM in each case.

Regarding `Cc1ccc(-c2noc(CC(O)C(F)F)n2)cc1NC(=O)c1cnc2ccccn12` (stereo not shown) [Compound I-122], the half-inhibitory concentration (IC50) on CSF-1R is 50 to 500 nM; at PDGFRα, 500 to 5000 nM.

As to `COc1ccn2c(C(=O)Nc3cc(-c4noc(C[C@H](C)O)n4)ccc3C)cnc2c1` [Compound I-94], the IC50 at CSF-1R was at most 50 nM; at PDGFRα, 50 to 500 nM.

Consider `COC(=O)N1CC(c2nc(-c3ccc(C(F)F)c(NC(=O)c4cnc5ccccn45)c3)no2)C1` [Compound I-225], for which the IC50 was 500 to 5000 nM at CSF-1R and 5000 to 30000 nM at PDGFRα.

As for `COc1ccn2c(C(=O)Nc3cc(-c4noc(CC(O)C(F)F)n4)ccc3C)cnc2c1` (single isomer, unassigned) [Compound I-76], the IC50 is at most 50 nM at CSF-1R and 50 to 500 nM on PDGFRα.

As for `Cc1ccc(-c2noc([C@H]3C[C@@H]3F)n2)cc1NC(=O)c1cnc2cc(COCC(C)(C)O)ccn12` [Compound I-71, N-[5-[5-[(1R,2S)-2-fluorocyclopropyl]-1,2,4-oxadiazol-3-yl]-2-methyl-phenyl]-7-[(2-hydroxy-2-methyl-propoxy)methyl]imidazo[1,2-a]pyridine-3-carboxamide], the IC50 at CSF-1R is at most 50 nM; on PDGFRα, 5000 to 30000 nM; in series [1], at most 100 nM; in series [2], over 10000 nM. The efflux ratio at 2.5 h, 2 μM at MDR1 (MDCKII-MDR1) was determined as 5.15. Moreover, the apical-to-basolateral permeability (Papp A→B) at 2.5 h, 2 μM on MDR1 (MDCKII-MDR1, apical to basolateral) is 5.94 ×10⁻⁶ cm/s.

`Cc1ccc(-c2noc([C@H]3C[C@@H]3F)n2)cc1NC(=O)c1cnc2cc(OC(C)C)ccn12` [Compound I-88]: the concentration for half-maximal inhibition (IC50) at CSF-1R was at most 50 nM; at PDGFRα it was 500 to 5000 nM; in series [1], at most 100 nM; in series [2], over 10000 nM.

Take `COc1ccn2c(C(=O)Nc3cc(-c4noc(CC5CC(F)(F)C5)n4)ccc3C)cnc2c1` [Compound I-91]: the 50% inhibitory concentration (IC50) on CSF-1R and on PDGFRα was 50 to 500 nM throughout.

`CCOc1ccn2c(C(=O)Nc3cc(-c4noc([C@H]5C[C@@H]5F)n4)ccc3C)cnc2c1` [Compound I-93]: the IC50 is at most 50 nM at CSF-1R and 50 to 500 nM on PDGFRα.

In the case of `Cc1ccc(-c2noc(CCO)n2)cc1NC(=O)c1cnc2ccccn12` [Compound I-306], the 50% inhibitory concentration (IC50) on CSF-1R and at PDGFRα was 500 to 5000 nM throughout.

Take `COc1ccc2ncc(C(=O)Nc3cc(-c4noc(C[C@@H](C)O)n4)ccc3C)n2c1` [Compound I-119]: the IC50 on CSF-1R and on PDGFRα was 500 to 5000 nM in each case.

Turning to `Cc1ccc(-c2noc([C@H]3C[C@@H]3F)n2)cc1NC(=O)c1cnc2cc(OC(F)(F)F)ccn12` [Compound I-87], the figures for the 50% inhibitory concentration (IC50) at CSF-1R and on PDGFRα were 50 to 500 nM and 5000 to 30000 nM, respectively.

In the case of `COCCOCc1ccn2c(C(=O)Nc3cc(-c4noc([C@H]5C[C@@H]5F)n4)ccc3C)cnc2c1` [Compound I-84], the IC50 on CSF-1R was at most 50 nM; on PDGFRα, 500 to 5000 nM.

Take `Cc1ccc(-c2noc(CC(O)C(F)F)n2)cc1NC(=O)c1cnc2ccccn12` (stereo not shown) [Compound I-114]: the IC50 is 50 to 500 nM at CSF-1R, 5000 to 30000 nM at PDGFRα, at most 100 nM in series [1] and over 10000 nM in series [2].

As to `Cc1ccc(-c2noc([C@H]3C[C@@H]3F)n2)cc1NC(=O)c1cnc2ccc(F)cn12` [Compound I-288], the IC50 lay in the range of 50 to 500 nM at CSF-1R and 500 to 5000 nM on PDGFRα.
